Among the data in ChEMBL document CHEMBL1156829 (Proc Natl Acad Sci U S A, 2008) are EC50 and CC50 values, retold here.

Data set [1] concerns Plasmodium falciparum. The experiment in a line: NOVARTIS: Inhibition of Plasmodium falciparum 3D7 (drug-susceptible) proliferation in erythrocyte-based infection assay. The following applies: Plasmodium falciparum, 3D7. The format is functional, organism-based.
Data set [2] deals with Plasmodium falciparum. Description: NOVARTIS: Inhibition of Plasmodium falciparum W2 (drug-resistant) proliferation in erythrocyte-based infection assay. The format is functional, organism-based. The following applies: Plasmodium falciparum, W2; read-out: EC50.
Data set [3] can be described thus: NOVARTIS: Cytotoxicity against human hepatocellular carcinoma cell line (Huh7). Conditions: Huh7 cells (hepatocellular carcinoma cell line). The format is toxicity, cell-based, Huh-7.

Where only a bound is given, the exact number is not on record here.

Broadly, the EC50 is the concentration at which the effect is half-maximal. The CC50 is the concentration at which the toxic effect on the cells reaches its halfway point. Read a high CC50 as lower toxicity to the cells. As for `COc1ccc(-c2nc(NC(=O)CS(=O)(=O)c3ccc(F)cc3)sc2C)cc1`, the figures for the EC50 in the data set with Plasmodium falciparum [1] and in the data set on Plasmodium falciparum [2] were 0.212 µM and 0.56 µM, respectively. In addition, it took 44.1 µM to reach half-maximal cytotoxicity in data set [3] (CC50).

For the compound `CCOc1ccc(Nc2cc(C)nc(Nc3ccc(OCC)cc3)n2)cc1`, the figures for the EC50 in the data set on Plasmodium falciparum [1] and with Plasmodium falciparum [2] were 0.104 µM and 0.124 µM, respectively. In addition, it took 9.85 µM to reach half-maximal cytotoxicity in data set [3] (CC50).

Take `O=C(COC(c1cccs1)c1cccnc1Cl)N1CCN(CCO)CC1` (stereo not given): the concentration for a half-maximal effect (EC50) in the data set on Plasmodium falciparum [1] was over 12.5 µM; in the data set with Plasmodium falciparum [2] it was 1.29 µM. In data set [3], this compound had a 50% cytotoxic concentration (CC50) of over 100 µM.

On to `COc1cc(C(C(=O)NCc2ccccc2)N(C(=O)c2snc(C(N)=O)c2N)c2ccc(C(C)C)cc2)cc(OC)c1OC` (stereo not given), for which the figures for the 50% effective concentration (EC50) with Plasmodium falciparum [1] and with Plasmodium falciparum [2] were 2.45 µM and 1.29 µM, respectively. Besides, the 50% cytotoxic concentration (CC50) in data set [3] was over 100 µM.

For `CCC(CC)C(=O)Nc1c2c(nn1-c1cccc(Cl)c1)C[S+]([O-])C2` (stereo not given), the figures for the EC50 with Plasmodium falciparum [1] and with Plasmodium falciparum [2] were 11.9 µM and 1.3 µM, respectively. Also, the 50% cytotoxic concentration (CC50) in data set [3] was over 100 µM.

`CN(CCCNc1ccnc2cc(Cl)ccc12)C(=O)C12CC3CC(CC(C3)C1)C2`: the EC50 in the data set on Plasmodium falciparum [1] came to 0.053 µM; in the data set with Plasmodium falciparum [2] it was 0.184 µM. In addition, in data set [3], half-maximal cytotoxicity (CC50) was put at 14.1 µM.

Turning to `COc1ccc2cc(CNC3CCN(Cc4ccccc4)CC3)c(=O)[nH]c2c1`, the EC50 with Plasmodium falciparum [1] turned out to be 0.671 µM; in the data set on Plasmodium falciparum [2], 0.856 µM. For the same compound, in data set [3], the cytotoxic concentration (CC50) was over 65.9 µM.

Consider `COc1ccc2nc(Nc3nc(-c4ccccn4)cs3)sc2c1`, for which the EC50 with Plasmodium falciparum [1] is 0.0918 µM; in the data set on Plasmodium falciparum [2], 0.0935 µM. Half-maximal cytotoxicity in data set [3] (CC50) was put at 7.31 µM.

As for `COc1ccc(-c2c[n+](CC(=O)c3ccccc3Cl)c3n2CCC3)cc1`, the concentration giving a half-maximal response (EC50) in the data set on Plasmodium falciparum [1] was found to be 1.07 µM; in the data set with Plasmodium falciparum [2] it was 1.29 µM. For the same compound, the half-maximal cytotoxic concentration (CC50) in data set [3] was over 100 µM.

As for `CCCOC(=O)C1=C(C)NC2=C(C(=O)CC(c3ccc(OC)c(OC)c3)C2)C1c1ccc(O)c(OCC)c1` (stereo not given), the EC50 with Plasmodium falciparum [1] is 2.4 µM; with Plasmodium falciparum [2] it was 1.28 µM. Besides, the CC50 in data set [3] is over 100 µM.

Regarding `COc1ccc(C(=O)C[N+]2=C(C)c3ccc(C)n3CC2)cc1`, the concentration for a half-maximal effect (EC50) worked out at 1.17 µM in the data set on Plasmodium falciparum [1] and 1.29 µM with Plasmodium falciparum [2]. The compound further registered a cytotoxic concentration (CC50) in data set [3] of over 100 µM.

Consider `Cc1cc(I)ccc1NC(=O)CNC(=O)OCc1ccccc1`, for which the results for the concentration for a half-maximal effect (EC50) in the data set on Plasmodium falciparum [1] and with Plasmodium falciparum [2] were over 12.5 µM and 1.28 µM, respectively. Further, in data set [3], the half-maximal cytotoxic concentration (CC50) was over 100 µM.

As to `O=C(NCc1ccc(Cl)cc1)C(=O)NCc1ccccn1`, the EC50 is 1.32 µM in the data set with Plasmodium falciparum [1] and 0.105 µM in the data set on Plasmodium falciparum [2]. In addition, the CC50 in data set [3] was 8.24 µM.

On to `Oc1ccc(Br)cc1CN1CCN(c2ccccn2)CC1`, for which the values for the 50% effective concentration (EC50) in the data set with Plasmodium falciparum [1] and in the data set with Plasmodium falciparum [2] were 3.17 µM and 0.438 µM, respectively. Also, the half-maximal cytotoxic concentration (CC50) in data set [3] came out at 34.6 µM.

Turning to `CC(=O)N(C1=C(N(C)C)C(=O)c2ccccc2C1=O)c1ccc(Cl)cc1`, the EC50 in the data set with Plasmodium falciparum [1] was found to be 0.0314 µM; with Plasmodium falciparum [2], 0.0691 µM. Further, in data set [3], it took 5.46 µM to reach half-maximal cytotoxicity (CC50).

Turning to `CCc1ccccc1N(CC(=O)NC1CCCCC1)C(=O)CCC(=O)Nc1ccccn1`, the EC50 was found to be 0.835 µM in the data set with Plasmodium falciparum [1] and 1.27 µM in the data set with Plasmodium falciparum [2]. In addition, the half-maximal cytotoxic concentration (CC50) in data set [3] is over 100 µM.

Take `O=C(NNC(=O)c1csnn1)c1ccc(Cl)cc1`: the half-maximal effective concentration (EC50) amounted to 0.781 µM in the data set on Plasmodium falciparum [1] and 1.29 µM with Plasmodium falciparum [2]. This compound also displayed a cytotoxic concentration (CC50) in data set [3] of over 100 µM.

For `O=C(Nc1ccc(CC2=NCCCN2)cc1)c1ccc(C(=O)Nc2ccc(CC3=NCCCN3)cc2)cc1`, the half-maximal effective concentration (EC50) with Plasmodium falciparum [1] worked out at 0.127 µM; with Plasmodium falciparum [2], 0.129 µM. The same compound displayed a CC50 in data set [3] of over 10 µM.

In the case of `CCOC(=O)C1=CN(c2cc(C)ccc2C)C=C(C(=O)OCC)C1c1ccccc1OC`, the EC50 with Plasmodium falciparum [1] worked out at 4.43 µM; in the data set on Plasmodium falciparum [2] it was 1.28 µM. Besides, the CC50 in data set [3] is over 100 µM.

Turning to `O=C1CSC2=NCN(c3cccc(Cl)c3)CN12`, the half-maximal effective concentration (EC50) was over 12.5 µM with Plasmodium falciparum [1] and 1.26 µM with Plasmodium falciparum [2]. The compound further showed a CC50 in data set [3] of over 100 µM.

As to `O=C(Nc1ccc2oc(-c3ccccc3F)nc2c1)c1ccc([N+](=O)[O-])o1`, the concentration giving a half-maximal response (EC50) in the data set with Plasmodium falciparum [1] was over 12.5 µM; with Plasmodium falciparum [2], 1.26 µM. For the same compound, the half-maximal cytotoxic concentration (CC50) in data set [3] is over 100 µM.

For the compound `Cc1ccc(Nc2cc(C)nc(NCc3ccccc3)n2)cc1`, the figures for the EC50 with Plasmodium falciparum [1] and with Plasmodium falciparum [2] were 0.112 µM and 0.132 µM, respectively. In data set [3], this compound displayed a cytotoxic concentration (CC50) of 10.5 µM.

For `Cc1ccc(-c2noc(C3CCN(C(=O)Nc4ccc(C#N)cc4)CC3)n2)o1`, the EC50 in the data set with Plasmodium falciparum [1] is 1.3 µM; with Plasmodium falciparum [2] it was 1.26 µM. In addition, the cytotoxic concentration (CC50) in data set [3] was over 100 µM.

For `CCOC(=O)C1=C(C)NC2=C(C(=O)CC(C)(C)C2)C1c1ccccn1` (stereo not given), the concentration for a half-maximal effect (EC50) in the data set on Plasmodium falciparum [1] was over 12.5 µM; in the data set with Plasmodium falciparum [2] it was 1.26 µM. Further, in data set [3], the half-maximal cytotoxic concentration (CC50) is over 100 µM.

In the case of `Clc1cccc(Nc2nc(NCc3ccco3)c3ccccc3n2)c1`, the figures for the EC50 in the data set with Plasmodium falciparum [1] and with Plasmodium falciparum [2] were 0.112 µM and 0.203 µM, respectively. The CC50 in data set [3] was 16.1 µM.

Consider `COc1ccc(N)cc1NC(=O)c1ccc(Cl)cc1Cl`, for which the concentration for a half-maximal effect (EC50) in the data set on Plasmodium falciparum [1] is over 0.89 µM; in the data set with Plasmodium falciparum [2], 0.0879 µM. Moreover, in data set [3], the 50% cytotoxic concentration (CC50) came to 6.99 µM.

Regarding `COc1ccc([N+](=O)[O-])cc1C=NNc1nc(Nc2ccc([N+](=O)[O-])cc2)nc(N2CCN(C)CC2)n1`, the half-maximal effective concentration (EC50) in the data set with Plasmodium falciparum [1] is 0.859 µM; in the data set on Plasmodium falciparum [2] it was 0.388 µM. The same compound returned a half-maximal cytotoxic concentration (CC50) in data set [3] of 30.7 µM.

As for `CCCCOc1ccc(C(=O)Oc2ccccc2-c2nc3cc(C)ccn3c2NC(C)(C)CC(C)(C)C)cc1`, the EC50 worked out at 0.804 µM in the data set with Plasmodium falciparum [1] and 0.13 µM in the data set on Plasmodium falciparum [2]. In data set [3], the CC50 was over 10 µM.

On to `COc1cccc2c(C)nc(N=C(N)N)nc12`, for which the 50% effective concentration (EC50) is 0.291 µM with Plasmodium falciparum [1] and 0.688 µM in the data set on Plasmodium falciparum [2]. In data set [3], this compound yielded a CC50 of 53.5 µM.

As for `COC(=O)CNC(c1ccccc1)c1cc(Br)ccc1NC(=O)C(Cc1ccccc1)NC(=O)OCc1ccccc1` (stereo not given), the EC50 was 4.08 µM with Plasmodium falciparum [1] and 1.28 µM in the data set with Plasmodium falciparum [2]. Besides, the 50% cytotoxic concentration (CC50) in data set [3] was over 100 µM.

Turning to `CC(Sc1nnc2c3ccccc3n(Cc3ccccc3)c2n1)C(=O)N1CCN(C(=O)C(c2ccccc2)c2ccccc2)C(C)C1` (stereo not given), the 50% effective concentration (EC50) was 0.914 µM in the data set on Plasmodium falciparum [1] and 0.127 µM with Plasmodium falciparum [2]. In data set [3], this compound yielded a CC50 of over 10 µM.

Consider `CCOC(=O)c1c(C)[nH]c2c1cc(O)c1ccccc12`, for which the EC50 in the data set on Plasmodium falciparum [1] was determined as 0.0986 µM; with Plasmodium falciparum [2], 0.126 µM. The cytotoxic concentration (CC50) in data set [3] was over 10 µM.

Consider `CC(C)(C)c1ccc(C(=O)N2CCCn3cccc3C2c2ccc(C(C)(C)C)cc2)cc1` (stereo not given), for which the EC50 stood at 1.56 µM in the data set with Plasmodium falciparum [1] and 1.29 µM in the data set on Plasmodium falciparum [2]. The compound also displayed a CC50 in data set [3] of over 100 µM.

For the compound `CC[N+]1(CCOc2ccc(C34CC5CC(CC(C5)C3)C4)cc2)CCCCC1`, the EC50 with Plasmodium falciparum [1] came out at 1.01 µM; in the data set on Plasmodium falciparum [2], 0.746 µM. In addition, the 50% cytotoxic concentration (CC50) in data set [3] is 58.2 µM.

In the case of `COc1ccc(NC(=O)CN2CCN(S(=O)(=O)c3cccc([N+](=O)[O-])c3)CC2)c(OC)c1`, the EC50 was over 12.5 µM in the data set on Plasmodium falciparum [1] and 1.3 µM with Plasmodium falciparum [2]. The compound also registered a half-maximal cytotoxic concentration (CC50) in data set [3] of over 100 µM.

Take `Cc1nc(NC(=N)N)nc2ccccc12`: the EC50 in the data set with Plasmodium falciparum [1] was found to be 0.887 µM; with Plasmodium falciparum [2], 0.858 µM. Also, the cytotoxic concentration (CC50) in data set [3] was determined as 66.4 µM.

`CCC(C)NC(=O)c1cc(NC(=O)c2cccc(Cl)c2)ccc1N1CCCCC1` (stereo not given): the EC50 in the data set with Plasmodium falciparum [1] is over 1.61 µM; with Plasmodium falciparum [2], 0.194 µM. This compound had a CC50 in data set [3] of 15.4 µM.

For the compound `CCCn1c(=N)c(C(=O)NC2CCCCC2)cc2c(=O)n3cccc(C)c3nc21`, the EC50 with Plasmodium falciparum [1] is 0.46 µM; with Plasmodium falciparum [2], 1.29 µM. Besides, the CC50 in data set [3] was over 100 µM.

Regarding `CC(=NNC(=N)N)c1ccc(C)cc1`, the concentration giving a half-maximal response (EC50) is 2.04 µM in the data set with Plasmodium falciparum [1] and 0.25 µM with Plasmodium falciparum [2]. In addition, the CC50 in data set [3] was 19.3 µM.

Turning to `CN(C)c1ccc(C=NNc2ncnc3nc[nH]c23)cc1`, the EC50 in the data set with Plasmodium falciparum [1] is 0.167 µM; in the data set with Plasmodium falciparum [2] it was 0.138 µM. This compound displayed a CC50 in data set [3] of 11 µM.
